# Experiments:
# Mus musculus [1] = experiment: Antidepressant activity in mouse assessed as decrease in immobility time at 10 mg/kg, ip by forced swimming test (reference value: 147.8 +/- 10.2 sec); format: functional
# Mus musculus [2] = experiment: Anti-inflammatory activity against dimethylbenzene-induced ear edema mouse model assessed as inhibition of ear edema at 10 mg/kg, ip measured after 60 mins (reference value: 6.93 +/- 1.05 mg); format: functional; conditions: 1 h
# Mus musculus [3] = experiment: Analgesic activity in mouse assessed as inhibition of acetic acid-induced writhing at 10 mg/kg, ip measured after 60 mins relative to control; format: functional; design: scale not given: the % may be the effect or the level left; conditions: 1 h
# Mus musculus [4] = experiment: Anti-inflammatory activity against dimethylbenzene-induced ear edema mouse model assessed as inhibition of ear edema at 10 mg/kg, ip measured after 60 mins relative to control; format: functional; design: scale not given: the % may be the effect or the level left; conditions: 1 h
# [5] = target: 5-HT3 receptor (Cavia porcellus); experiment: Antagonist activity against 5-H3R in guinea pig ileum preincubated for 10 mins followed by 2-methyl 5-HT addition; conditions: read-out: pA2 (converted)
# Mus musculus [6] = experiment: Antidepressant activity in mouse assessed as decrease in immobility time at 10 mg/kg, ip by forced swimming test relative to control; format: functional; design: scale not given: the % may be the effect or the level left
SMILES,Time (Mus musculus [1]) [s],Activity (Mus musculus [2]) [mg],Activity (Mus musculus [3]) [%],Activity (Mus musculus [4]) [%],Kb [5] [nM],Activity (Mus musculus [6]) [%]
Cc1cc2cc(CC3NC(=O)C(C)NC3=O)[nH]c2cc1C (stereo not given),87.2,2.83,54.3,,,
Cc1ccc2cc(CC3NC(=O)C(C)NC3=O)[nH]c2c1 (stereo not given),58.2,1.12,79.3,83.3,,
CC1NC(=O)C(Cc2cc3ccc(F)cc3[nH]2)NC1=O (stereo not given),52.8,0.69,77.8,90,,
COc1cc2cc(CC3NC(=O)C(C)NC3=O)[nH]c2cc1OC (stereo not given),98,3.03,58.9,,,
CC1NC(=O)C(Cc2cc3cc(Cl)ccc3[nH]2)NC1=O (stereo not given),64.8,0.7,87.5,89.8,,
CC1NC(=O)C(Cc2cc3ccc(Cl)cc3[nH]2)NC1=O (stereo not given),66.8,0.89,65.4,87.2,,
CC1NC(=O)C(Cc2cc3cc(Br)ccc3[nH]2)NC1=O (stereo not given),79.4,1.42,70.2,,,
CC1NC(=O)C(Cc2cc3ccc(Br)cc3[nH]2)NC1=O (stereo not given),76.8,1.72,62.8,,,
CC1NC(=O)C(Cc2cc3cc(F)ccc3[nH]2)NC1=O (stereo not given),53.1,0.61,90.2,91.2,,
CC1NC(=O)C(Cc2cc3cc([N+](=O)[O-])ccc3[nH]2)NC1=O (stereo not given),88.6,1.61,66.8,,,
CC1NC(=O)C(Cc2cc3cc(N(C)C)ccc3[nH]2)NC1=O (stereo not given),91.3,2.02,50.9,,,
CC1NC(=O)C(Cc2cc3ccccc3[nH]2)NC1=O (stereo not given),93.3,2.4,51.6,,,
Cc1ccccc1N1CCN(C(=O)C2Cc3ccccc3N2C)CC1 (stereo not given),,,,,31.6,
CC1NC(=O)C(Cc2cc3cc(C(F)(F)F)ccc3[nH]2)NC1=O (stereo not given),44,0.45,88.9,93.5,,70.2
COc1ccc2cc(CC3NC(=O)C(C)NC3=O)[nH]c2c1 (stereo not given),77.2,1.5,65,,,
CC1NC(=O)C(Cc2cc3ccc(N(C)C)cc3[nH]2)NC1=O (stereo not given),95.1,2.47,60.1,,,
CC1NC(=O)C(Cc2cc3cc(Cl)c(Cl)cc3[nH]2)NC1=O (stereo not given),42.5,0.79,82.5,87.2,,71.2
COc1ccc2[nH]c(CC3NC(=O)C(C)NC3=O)cc2c1 (stereo not given),67.3,1.41,53.2,,,
Cc1ccc2[nH]c(CC3NC(=O)C(C)NC3=O)cc2c1 (stereo not given),53.5,1.04,55.2,85,,
CNCCC(Oc1ccc(C(F)(F)F)cc1)c1ccccc1 (stereo not given) [FLUOXETINE],47.4,,,,,67.9
COc1ccc2c(c1)c(CC(=O)O)c(C)n2C(=O)c1ccc(Cl)cc1 [INDOMETHACIN],,1.05,88.7,84.8,,

# Reference: ChEMBL document CHEMBL4699621, “Novel piperazine-2,5-dione analogs bearing 1H-indole: Synthesis and biological effects” (Bioorg Med Chem Lett, 2020)
